Test results as given in PubChem BioAssay AID268 (DTP/NCI, 2004).
“And” between values parts separate entries of the source, which are not always exact repeats. Equal entries are not always repeated.

System: CD2F1 mice, P1798 lymphosarcoma sc, tumor weight T/C
Experiment: NCI In Vivo Anticancer Drug Screen. Data for tumor model P1798 Lymphosarcoma (subcutaneous) in CD2F1 (CDF1) mice
Details: endpoint: mean tumor weight, higher = larger tumour
Description: The antitumor activity of compounds was measured in mice bearing transplantable tumors. Survival or tumor size were measured and the results are expressed as the measurement made in the treated group (T) divided by the measurement made in the vehicle treated control group (C). The tumor model used in this assay is P1798 Lymphosarcoma (subcutaneous) in CD2F1 (CDF1) mice

[1] = dose: 12.5 mg/kg/injection, schedule: Q01DX005 (sc), vehicle: steriod suspending solution
[2] = dose: 12.5 mg/kg/injection, schedule: Q01DX010 (sc), vehicle: steriod suspending solution
[3] = dose: 25.0 mg/kg/injection, schedule: Q01DX005 (sc), vehicle: steriod suspending solution
[4] = dose: 25.0 mg/kg/injection, schedule: Q01DX010 (sc), vehicle: steriod suspending solution
[5] = dose: 50.0 mg/kg/injection, schedule: Q01DX005 (sc), vehicle: steriod suspending solution
[6] = dose: 50.0 mg/kg/injection, schedule: Q01DX010 (sc), vehicle: steriod suspending solution
[7] = dose: 50.0 mg/kg/injection, schedule: Q03DX004 (sc), vehicle: steriod suspending solution
[8] = dose: 75.0 mg/kg/injection, schedule: Q02DX010 (sc), vehicle: steriod suspending solution
[9] = dose: 100.0 mg/kg/injection, schedule: Q01DX005 (sc), vehicle: steriod suspending solution
[10] = dose: 100.0 mg/kg/injection, schedule: Q02DX010 (sc), vehicle: steriod suspending solution
[11] = dose: 100.0 mg/kg/injection, schedule: Q03DX004 (sc), vehicle: steriod suspending solution
[12] = dose: 50.0 mg/kg/injection, schedule: Q02DX010 (sc), vehicle: steriod suspending solution
[13] = dose: 3.13 mg/kg/injection, schedule: Q01DX010 (ip), vehicle: saline
[14] = dose: 6.25 mg/kg/injection, schedule: Q01DX010 (ip), vehicle: saline
[15] = dose: 12.5 mg/kg/injection, schedule: Q01DX010 (ip), vehicle: saline
[16] = dose: 25.0 mg/kg/injection, schedule: Q01DX010 (ip), vehicle: saline
[17] = dose: 50.0 mg/kg/injection, schedule: Q01DX010 (ip), vehicle: saline
[18] = dose: 100.0 mg/kg/injection, schedule: Q01DX010 (ip), vehicle: saline
[19] = dose: 60.0 mg/kg/injection, schedule: Q01DX010 (ip), vehicle: saline
[20] = dose: 0.13 mg/kg/injection, schedule: Q01DX010 (ip), vehicle: saline
[21] = dose: 0.25 mg/kg/injection, schedule: Q01DX010 (ip), vehicle: saline
[22] = dose: 0.5 mg/kg/injection, schedule: Q01DX010 (ip), vehicle: saline
[23] = dose: 0.63 mg/kg/injection, schedule: Q01DX010 (ip), vehicle: saline
[24] = dose: 1.25 mg/kg/injection, schedule: Q01DX010 (ip), vehicle: saline

CC1C[C@@H]2[C@H]([C@@H](O)C[C@@]3(C)[C@H]2CC[C@]3(O)C(=O)CF)[C@@]2(C)CCC(=O)C=C12 (some centres not stated)
T/C [1]: 92 % of control
T/C [2]: 54 % of control and 60 % of control
T/C [3]: 47 % of control
T/C [4]: 57 % of control and 71 % of control
T/C [5]: 55 % of control
T/C [6]: 58 % of control and 65 % of control
T/C [7]: 66 % of control
T/C [8]: 100 % of control
T/C [9]: 14 % of control
T/C [10]: 93 % of control
T/C [11]: 61 % of control
T/C (dose: 150.0 mg/kg/injection, schedule: Q01DX010 (sc), vehicle: steriod suspending solution): 118 % of control
T/C (dose: 150.0 mg/kg/injection, schedule: Q02DX010 (sc), vehicle: steriod suspending solution): 95 % of control
T/C (dose: 200.0 mg/kg/injection, schedule: Q03DX004 (sc), vehicle: steriod suspending solution): 25 % of control

C[C@]12C[C@H](O)[C@H]3[C@@H](CCC4=CC(=O)CC[C@@]43C)[C@@H]1CC[C@@H]2C(=O)CO
T/C [1]: 88 % of control
T/C [3]: 97 % of control
T/C [4]: 91 % of control and 69 % of control
T/C (dose: 25.0 mg/kg/injection, schedule: Q03DX004 (sc), vehicle: steriod suspending solution): 91 % of control
T/C [5]: 63 % of control
T/C [12]: 91 % of control
T/C [7]: 56 % of control
T/C (dose: 75.0 mg/kg/injection, schedule: Q01DX010 (sc), vehicle: steriod suspending solution): 105 % of control
T/C [8]: 101 % of control
T/C [9]: 32 % of control
T/C [10]: 101 % of control
T/C [11]: 33 % of control

O=C(C(=O)N1CC1)c1c[nH]c2ccccc12
T/C [13]: 90 % of control
T/C [14]: 105 % of control
T/C [15]: 92 % of control and 99 % of control
T/C [16]: 108 % of control

CC(=O)OC1C=CC(=O)OC1C1OC1C (configuration not stated)
T/C (dose: 4.0 mg/kg/injection, schedule: Q01DX011 (ip), vehicle: saline): 53 % of control
T/C (dose: 6.0 mg/kg/injection, schedule: Q01DX011 (ip), vehicle: saline): 72 % of control
T/C (dose: 9.0 mg/kg/injection, schedule: Q01DX011 (ip), vehicle: saline): 62 % of control
T/C (dose: 13.0 mg/kg/injection, schedule: Q01DX011 (ip), vehicle: saline): 56 % of control

CN(Cc1cnc2nc(N)nc(N)c2n1)c1c(Cl)cc(C(=O)NC(CCC(=O)O)C(=O)O)cc1Cl (configuration not stated)
T/C (dose: 10.0 mg/kg/injection, schedule: Q01DX010 (ip), vehicle: saline): 33 % of control
T/C (dose: 20.0 mg/kg/injection, schedule: Q01DX010 (ip), vehicle: saline): 12 % of control

CCN(CC)CCCC(C)Nc1c2ccc(Cl)cc2nc2ccc(OC)cc12 (configuration not stated)
T/C [15]: 103 % of control
T/C [16]: 103 % of control and 88 % of control
T/C [17]: 81 % of control and 85 % of control
T/C [18]: 61 % of control and 64 % of control

CCOC(N)=O
T/C (dose: 125.0 mg/kg/injection, schedule: Q01DX010 (ip), vehicle: saline): 95 % of control
T/C (dose: 250.0 mg/kg/injection, schedule: Q01DX010 (ip), vehicle: saline): 64 % of control
T/C (dose: 500.0 mg/kg/injection, schedule: Q01DX010 (ip), vehicle: saline): 23 % of control

C[C@H]1C(=O)O[C@@H]2CCN3CC=C(COC(=O)[C@](C)(O)[C@@]1(C)O)[C@H]23
T/C [13]: 74 % of control and 79 % of control
T/C [14]: 77 % of control
T/C [15]: 62 % of control and 80 % of control

C[C@]12CC[C@H](O)C[C@@H]1CC[C@@H]1[C@@H]2C(=O)C[C@]2(C)C3=CC(=O)O[C@H]3C[C@@H]12
T/C (dose: 10.0 mg/kg/injection, schedule: Q01DX010 (sc), vehicle: steriod suspending solution): 76 % of control and 83 % of control
T/C (dose: 20.0 mg/kg/injection, schedule: Q01DX010 (sc), vehicle: steriod suspending solution): 97 % of control
T/C (dose: 40.0 mg/kg/injection, schedule: Q01DX010 (sc), vehicle: steriod suspending solution): 87 % of control and 90 % of control
T/C (dose: 80.0 mg/kg/injection, schedule: Q01DX010 (sc), vehicle: steriod suspending solution): 78 % of control and 85 % of control

CN(N=O)C(=O)NC(C=O)C(O)C(O)C(O)CO (configuration not stated)
T/C (dose: 22.5 mg/kg/injection, schedule: Q01DX010 (ip), vehicle: saline): 43 % of control
T/C (dose: 40.0 mg/kg/injection, schedule: Q01DX010 (ip), vehicle: saline): 97 % of control
T/C (dose: 45.0 mg/kg/injection, schedule: Q01DX010 (ip), vehicle: saline): 53 % of control
T/C [19]: 64 % of control
T/C (dose: 90.0 mg/kg/injection, schedule: Q01DX010 (ip), vehicle: saline): 24 % of control and 29 % of control

CSCS(=O)C[C@H](CO)NC(=O)/C=C/c1c(C)[nH]c(=O)[nH]c1=O (some centres not stated)
T/C [20]: 94 % of control
T/C [21]: 99 % of control
T/C [22]: 15 % of control

CN[C@H]1CCc2cc(OC)c(OC)c(OC)c2-c2ccc(OC)c(=O)cc21
T/C (dose: 0.63 mg/kg/injection, schedule: Q01DX010 (ip), vehicle: other): 108 % of control
T/C [23]: 59 % of control
T/C (dose: 1.25 mg/kg/injection, schedule: Q01DX010 (ip), vehicle: other): 116 % of control
T/C [24]: 82 % of control
T/C (dose: 2.5 mg/kg/injection, schedule: Q01DX010 (ip), vehicle: other): 112 % of control
T/C (dose: 2.5 mg/kg/injection, schedule: Q01DX010 (ip), vehicle: saline): 57 % of control
T/C (dose: 5.0 mg/kg/injection, schedule: Q01DX010 (ip), vehicle: other): 96 % of control
T/C (dose: 5.0 mg/kg/injection, schedule: Q01DX010 (ip), vehicle: saline): 32 % of control

CO[C@@]12[C@H](COC(N)=O)C3=C(C(=O)C(C)=C(N)C3=O)N1C[C@@H]1N[C@@H]12
T/C [21]: 85 % of control
T/C [22]: 61 % of control
T/C (dose: 1.0 mg/kg/injection, schedule: Q01DX010 (ip), vehicle: saline): 36 % of control

COc1cc(-c2ccc(Nc3ccccc3C(=O)O)c(OC)c2)ccc1Nc1ccccc1C(=O)O
T/C [15]: 61 % of control
T/C [16]: 53 % of control and 57 % of control
T/C [17]: 12 % of control and 30 % of control

Nc1ncnc2c1ccn2C1OC(CO)C(O)C1O (configuration not stated)
T/C (dose: 0.32 mg/kg/injection, schedule: Q01DX010 (ip), vehicle: saline): 97 % of control
T/C [23]: 101 % of control
T/C [24]: 84 % of control

Nc1c(N=Nc2ccc([N+](=O)[O-])cc2)c(S(=O)(=O)O)cc2cc(S(=O)(=O)O)c(N=Nc3ccc(Sc4ccc(N=Nc5ccc(O)cc5)cc4)cc3)c(O)c12 (tested in a mixture with another compound)
T/C [17]: 119 % of control
T/C [18]: 76 % of control
T/C (dose: 200.0 mg/kg/injection, schedule: Q01DX010 (ip), vehicle: saline): 31 % of control
T/C (dose: 400.0 mg/kg/injection, schedule: Q01DX010 (ip), vehicle: saline): 20 % of control

C[C@]12CCC(=O)C=C1CC[C@@H]1[C@@H]2CC[C@@]2(C)[C@H]1CC[C@]2(C)O
T/C [2]: 91 % of control
T/C [4]: 61 % of control
T/C [6]: 90 % of control
T/C (dose: 100.0 mg/kg/injection, schedule: Q01DX010 (sc), vehicle: steriod suspending solution): 97 % of control

C[C@]12CC[C@H](OC3OC(CO)C(O)C(O)C3O)C[C@H]1CC[C@@H]1[C@@H]2CC[C@]2(C)[C@@H](C3=CCOC3=O)CC[C@]12O (some centres not stated)
T/C [20]: 71 % of control
T/C [21]: 96 % of control

C[C@]12CCC(=O)C=C1CC[C@@H]1[C@@H]2[C@@H](O)C[C@@]2(C)[C@H]1CC[C@]2(O)C(=O)CO
T/C [1]: 51 % of control
T/C (dose: 12.5 mg/kg/injection, schedule: Q02DX010 (sc), vehicle: steriod suspending solution): 105 % of control
T/C [3]: 15 % of control
T/C (dose: 25.0 mg/kg/injection, schedule: Q02DX010 (sc), vehicle: steriod suspending solution): 105 % of control
T/C [5]: 7 % of control
T/C [12]: 110 % of control
T/C [9]: 1 % of control

CC(/C=N/N=C(N)N)=N\N=C(N)N
T/C (dose: 15.0 mg/kg/injection, schedule: Q01DX010 (ip), vehicle: saline): 78 % of control
T/C (dose: 30.0 mg/kg/injection, schedule: Q01DX010 (ip), vehicle: saline): 87 % of control
T/C [19]: 50 % of control

CC1CC(C)OS(=O)O1 (configuration not stated)
T/C (dose: 44.0 mg/kg/injection, schedule: Q01DX010 (ip), vehicle: saline): 70 % of control
T/C (dose: 66.0 mg/kg/injection, schedule: Q01DX010 (ip), vehicle: saline): 30 % of control
